Laboratory results reported in the NIST ThermoML archive (doi:10.1016/j.fluid.2010.03.027).
Numbers after ± are expanded uncertainties.

Key:
[1] = Liquid, Closed cell (Static) method
[2] = activity coefficient (dimensionless); of the first substance listed, at infinite dilution; xn = mol fraction of the nth substance listed; settings: 101 kPa, Liquid, dilutor technique, x1 = 0

CSC [2-thiapropane]
vapor or sublimation pressure ([1]; 293.94 K): 53.2 ± 1.2 kPa
vapor or sublimation pressure ([1]; 312.86 K): 108.8 ± 1.2 kPa

CSC [2-thiapropane] + C=C(C)CC(C)(C)C
activity coefficient ([2]; 288.15 K): 1.5 ± 0.66
activity coefficient ([2]; 298.15 K): 1.45 ± 0.52
activity coefficient ([2]; 303.15 K): 1.4 ± 0.44

CSC [2-thiapropane] + C=CCCCC
activity coefficient ([2]; 288.15 K): 1.77 ± 0.68
activity coefficient ([2]; 298.15 K): 1.71 ± 0.52
activity coefficient ([2]; 303.15 K): 1.64 ± 0.46

CSC [2-thiapropane] + CC(C)CC(C)(C)C
activity coefficient ([2]; 288.15 K): 1.77 ± 0.7
activity coefficient ([2]; 298.15 K): 1.72 ± 0.54
activity coefficient ([2]; 303.15 K): 1.67 ± 0.3

CSC [2-thiapropane] + CCCCCC
activity coefficient ([2]; 288.15 K): 2.16 ± 0.9
activity coefficient ([2]; 293.15 K): 2.04 ± 0.78
activity coefficient ([2]; 298.15 K): 1.95 ± 0.68
activity coefficient ([2]; 303.15 K): 1.91 ± 0.6

CCC [propane]
vapor or sublimation pressure ([1]; 293.94 K): 852.6 ± 2.3 kPa
vapor or sublimation pressure ([1]; 293.97 K): 853.1 ± 2.3 kPa
vapor or sublimation pressure ([1]; 312.85 K): 1358.5 ± 2.8 kPa
vapor or sublimation pressure ([1]; 312.87 K): 1361.3 ± 2.8 kPa

C1CCSC1 [tetrahydrothiophene]
vapor or sublimation pressure ([1]; 293.97 K): 2.1 ± 1.2 kPa
vapor or sublimation pressure ([1]; 312.87 K): 5.9 ± 1.2 kPa
